In patent publication US10280170B2, “Substituted 4,5,6,7-tetrahydro-pyrazolo[1,5-a]pyrazine derivatives and 5,6,7,8-tetrahydro-4H-pyrazolo[1,5-a][1,4]diazepine derivatives as Ros1 inhibitors” (Janssen Pharmaceutica NV, priority 2014, dated 2019):
Where two headings read alike, the source gives them in different places.

Experiments:
[1] = target: T1, Ros1 enzyme (Homo sapiens, UniProt P08922); assay: Ros1 enzymatic assay; type: biochemical; conditions: Ros1 enzymatic assay; for IC50: read-out: ROS1 pIC50 (converted)
T1 construct: 0.5 μg/ml Ros1 enzyme
T1 sequence (P08922 28-2347): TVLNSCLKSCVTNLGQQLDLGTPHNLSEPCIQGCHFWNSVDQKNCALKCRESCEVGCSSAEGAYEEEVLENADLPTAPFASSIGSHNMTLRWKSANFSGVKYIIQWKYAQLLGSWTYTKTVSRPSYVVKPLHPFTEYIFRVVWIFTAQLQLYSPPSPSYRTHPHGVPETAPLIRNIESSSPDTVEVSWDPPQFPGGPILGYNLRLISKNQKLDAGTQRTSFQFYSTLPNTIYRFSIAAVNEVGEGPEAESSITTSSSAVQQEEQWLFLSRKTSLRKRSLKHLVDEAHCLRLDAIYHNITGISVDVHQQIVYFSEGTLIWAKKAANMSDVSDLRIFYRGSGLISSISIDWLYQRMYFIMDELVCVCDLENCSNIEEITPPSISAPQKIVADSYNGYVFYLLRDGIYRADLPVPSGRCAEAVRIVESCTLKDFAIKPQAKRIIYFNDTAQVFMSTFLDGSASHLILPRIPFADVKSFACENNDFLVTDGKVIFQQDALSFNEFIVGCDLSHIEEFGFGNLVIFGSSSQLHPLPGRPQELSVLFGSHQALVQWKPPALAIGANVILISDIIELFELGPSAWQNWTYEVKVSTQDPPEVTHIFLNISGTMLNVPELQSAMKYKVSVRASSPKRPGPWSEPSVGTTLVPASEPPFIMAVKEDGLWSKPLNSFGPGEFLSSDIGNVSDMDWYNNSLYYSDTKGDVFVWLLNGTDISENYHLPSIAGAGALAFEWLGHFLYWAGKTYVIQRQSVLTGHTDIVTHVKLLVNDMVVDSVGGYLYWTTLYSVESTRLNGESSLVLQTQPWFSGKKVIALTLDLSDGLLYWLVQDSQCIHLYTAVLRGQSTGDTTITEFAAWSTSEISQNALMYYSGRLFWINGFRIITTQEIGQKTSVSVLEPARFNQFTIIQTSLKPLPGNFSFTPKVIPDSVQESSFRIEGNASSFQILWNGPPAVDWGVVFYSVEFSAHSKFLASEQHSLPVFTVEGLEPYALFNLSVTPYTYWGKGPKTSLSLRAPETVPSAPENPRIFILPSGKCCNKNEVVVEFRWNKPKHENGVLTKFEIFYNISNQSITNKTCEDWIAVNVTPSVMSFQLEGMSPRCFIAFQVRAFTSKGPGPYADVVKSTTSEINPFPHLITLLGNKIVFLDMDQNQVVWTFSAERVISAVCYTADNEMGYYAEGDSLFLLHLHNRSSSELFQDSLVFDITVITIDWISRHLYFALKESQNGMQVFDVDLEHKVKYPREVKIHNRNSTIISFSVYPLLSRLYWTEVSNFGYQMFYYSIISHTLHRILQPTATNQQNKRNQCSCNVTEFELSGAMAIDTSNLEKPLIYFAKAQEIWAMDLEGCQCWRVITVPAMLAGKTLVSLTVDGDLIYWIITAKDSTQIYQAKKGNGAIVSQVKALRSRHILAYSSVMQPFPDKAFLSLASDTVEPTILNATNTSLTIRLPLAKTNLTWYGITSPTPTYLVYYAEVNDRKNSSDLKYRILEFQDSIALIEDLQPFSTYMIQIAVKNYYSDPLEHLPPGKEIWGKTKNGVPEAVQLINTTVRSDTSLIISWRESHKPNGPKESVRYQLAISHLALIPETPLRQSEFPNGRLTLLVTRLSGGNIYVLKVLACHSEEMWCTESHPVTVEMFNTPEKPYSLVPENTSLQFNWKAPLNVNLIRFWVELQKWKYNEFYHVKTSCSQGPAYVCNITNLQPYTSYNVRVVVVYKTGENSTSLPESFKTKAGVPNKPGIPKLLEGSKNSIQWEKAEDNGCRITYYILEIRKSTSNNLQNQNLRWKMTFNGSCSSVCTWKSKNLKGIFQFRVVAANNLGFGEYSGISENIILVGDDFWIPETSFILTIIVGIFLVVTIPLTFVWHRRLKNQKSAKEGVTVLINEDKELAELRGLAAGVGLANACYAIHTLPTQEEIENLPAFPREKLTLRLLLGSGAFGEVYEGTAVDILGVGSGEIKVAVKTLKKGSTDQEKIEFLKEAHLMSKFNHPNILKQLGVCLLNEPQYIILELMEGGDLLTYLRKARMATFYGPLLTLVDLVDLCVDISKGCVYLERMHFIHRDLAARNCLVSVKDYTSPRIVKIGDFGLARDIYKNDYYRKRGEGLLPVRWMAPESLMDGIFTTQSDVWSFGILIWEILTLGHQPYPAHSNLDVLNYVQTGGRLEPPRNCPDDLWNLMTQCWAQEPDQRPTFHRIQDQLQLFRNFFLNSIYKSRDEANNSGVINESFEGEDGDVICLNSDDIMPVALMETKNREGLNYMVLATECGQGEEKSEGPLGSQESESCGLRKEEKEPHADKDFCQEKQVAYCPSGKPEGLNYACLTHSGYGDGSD
Summary of the method: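 Ros1 kinase, IRS-Tide peptide, 20 μM ATP + [33P]ATP (substrate-mix concentrations); Tris-HCl pH7.5, 10 mM MgCl2, 1 mM EGTA, 0.01% Tween-20; 120 min RT; EDTA/excess ATP stop, streptavidin beads 15 min, LEADseeker imaging.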

[2] = target: T2, Ba/F3 cells containing Ros1 wild-type protein (Homo sapiens, UniProt P08922, cells depend on it, form not given); assay: Ba/F3-Ros1 cell proliferation assay, wild-type Ros1; type: cell-based, murine; conditions: without IL-3
T2 construct: The background only speaks of 'a number of different unrelated proteins' and names SLC34A2-ROS1 for HCC78 cells
T2 sequence (P08922 whole entry, stated change not applied): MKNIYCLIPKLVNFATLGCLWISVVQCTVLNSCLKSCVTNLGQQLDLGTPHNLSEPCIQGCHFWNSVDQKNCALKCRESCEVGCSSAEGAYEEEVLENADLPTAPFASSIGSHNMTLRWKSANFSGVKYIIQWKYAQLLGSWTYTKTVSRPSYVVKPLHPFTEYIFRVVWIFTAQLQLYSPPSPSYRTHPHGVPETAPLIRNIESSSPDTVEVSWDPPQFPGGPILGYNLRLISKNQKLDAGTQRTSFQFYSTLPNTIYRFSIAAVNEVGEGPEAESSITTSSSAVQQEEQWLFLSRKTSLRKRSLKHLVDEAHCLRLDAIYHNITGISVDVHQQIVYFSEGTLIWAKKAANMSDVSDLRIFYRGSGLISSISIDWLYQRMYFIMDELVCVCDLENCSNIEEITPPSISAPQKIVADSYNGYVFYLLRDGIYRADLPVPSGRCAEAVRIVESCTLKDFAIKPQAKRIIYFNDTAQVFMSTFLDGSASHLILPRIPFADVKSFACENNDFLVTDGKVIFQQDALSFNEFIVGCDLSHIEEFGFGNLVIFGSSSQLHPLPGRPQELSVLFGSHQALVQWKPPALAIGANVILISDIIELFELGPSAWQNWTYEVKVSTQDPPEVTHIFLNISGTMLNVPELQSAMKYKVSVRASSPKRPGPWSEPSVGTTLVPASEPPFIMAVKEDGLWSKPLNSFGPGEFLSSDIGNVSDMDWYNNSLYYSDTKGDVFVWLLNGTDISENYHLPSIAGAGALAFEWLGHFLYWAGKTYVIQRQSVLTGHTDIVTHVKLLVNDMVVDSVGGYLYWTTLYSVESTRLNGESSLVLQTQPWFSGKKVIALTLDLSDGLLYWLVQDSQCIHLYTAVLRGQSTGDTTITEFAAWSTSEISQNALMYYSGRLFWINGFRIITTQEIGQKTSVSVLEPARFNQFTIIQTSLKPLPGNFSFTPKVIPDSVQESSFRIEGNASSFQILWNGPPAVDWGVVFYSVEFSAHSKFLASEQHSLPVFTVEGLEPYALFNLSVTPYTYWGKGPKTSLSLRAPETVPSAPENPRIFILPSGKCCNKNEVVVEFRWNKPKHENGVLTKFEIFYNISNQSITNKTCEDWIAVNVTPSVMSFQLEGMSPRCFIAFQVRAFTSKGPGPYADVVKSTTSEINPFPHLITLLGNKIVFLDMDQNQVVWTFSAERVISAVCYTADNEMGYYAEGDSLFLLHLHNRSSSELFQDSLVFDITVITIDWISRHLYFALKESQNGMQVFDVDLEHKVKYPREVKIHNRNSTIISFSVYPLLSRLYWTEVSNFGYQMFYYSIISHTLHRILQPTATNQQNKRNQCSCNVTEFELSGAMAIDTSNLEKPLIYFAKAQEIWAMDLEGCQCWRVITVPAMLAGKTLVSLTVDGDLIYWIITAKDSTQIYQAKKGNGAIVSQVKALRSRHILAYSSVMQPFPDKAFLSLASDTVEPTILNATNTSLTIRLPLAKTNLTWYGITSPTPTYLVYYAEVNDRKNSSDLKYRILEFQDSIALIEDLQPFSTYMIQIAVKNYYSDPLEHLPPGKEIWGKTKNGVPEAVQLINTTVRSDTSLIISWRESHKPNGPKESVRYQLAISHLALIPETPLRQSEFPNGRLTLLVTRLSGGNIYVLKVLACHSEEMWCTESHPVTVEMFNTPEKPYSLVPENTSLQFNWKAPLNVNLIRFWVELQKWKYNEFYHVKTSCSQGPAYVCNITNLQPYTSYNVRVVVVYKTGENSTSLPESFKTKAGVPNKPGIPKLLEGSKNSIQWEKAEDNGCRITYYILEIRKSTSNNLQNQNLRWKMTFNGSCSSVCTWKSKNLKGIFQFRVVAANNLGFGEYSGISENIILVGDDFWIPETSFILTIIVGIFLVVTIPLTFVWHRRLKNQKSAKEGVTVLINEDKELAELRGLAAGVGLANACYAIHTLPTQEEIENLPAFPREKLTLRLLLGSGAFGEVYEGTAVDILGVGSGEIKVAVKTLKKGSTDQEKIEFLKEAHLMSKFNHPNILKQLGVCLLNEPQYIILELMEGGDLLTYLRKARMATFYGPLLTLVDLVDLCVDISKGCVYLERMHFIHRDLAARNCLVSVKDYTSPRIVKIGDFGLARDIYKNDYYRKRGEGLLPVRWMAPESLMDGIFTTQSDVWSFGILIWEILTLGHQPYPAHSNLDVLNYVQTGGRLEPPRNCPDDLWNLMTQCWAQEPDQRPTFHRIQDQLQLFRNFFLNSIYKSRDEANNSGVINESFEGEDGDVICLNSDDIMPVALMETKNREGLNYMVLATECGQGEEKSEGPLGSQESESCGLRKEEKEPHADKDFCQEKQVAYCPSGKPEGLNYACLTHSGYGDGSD
Summary of the method: (§1)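 Ba/F3 cells expressing wild-type, L2026M or G2032R Ros1 (20000 per well) were incubated with DMSO-solubilized compounds in phenol red-free RPMI-1640 with 10% FBS and 2 mM L-glutamine at 37 °C, 5% CO2 for 24 hours. Viability was then read by Alamar Blue fluorescence (ex 540/em 590 nm) after 4 h.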

[3] = target: Ba/F3 cells containing Ros1 with a mutation at the gatekeeper residue (L2026M) (Homo sapiens, UniProt P08922, L2026M, cells depend on it, form not given); assay: Ba/F3-Ros1 cell proliferation assay, L2026M gatekeeper mutant; type: cell-based, murine; conditions: without IL-3
Ba/F3 cells containing Ros1 with a mutation at the gatekeeper residue (L2026M), sequence (P08922 whole entry L2026M, form open): as the sequence (P08922 whole entry, stated change not applied) above, with L2026M counted along it
Summary of the method: as §1

[4] = system: HCC78 non-small cell lung cancer cells; assay: HCC78 cell proliferation assay; type: cell-based; conditions: for EC50: Homo sapiens, HCC78, 96 h, read-out: HCC-78 PROL pEC50 (converted)
Procedure: HCC78 Cell Proliferation Assay
Approximately 1000 HCC78 non-small cell lung cancer cells in 180 μl of cell culture medium (RPMI-1640, 10% FBS, 2 mM L-Glutamine, 10 mM Hepes, 1 mM sodium pyruvate, 4.5 g/L glucose, 1.5 g/L sodium bicarbonate, 25 μg/ml Gentamycin) were seeded in each well of a 96-well polystyrene, tissue-culture treated plate and incubated at 37° C. and 5% CO2. After 24 hours, compounds were diluted in cell culture medium from which 20 μl was added to the wells containing cells and incubated for 4 days at 37° C. and 5% CO2. A 5 mg/ml solution of the tetrazolium dye MTT was prepared in PBS (phosphate-buffered saline) and 25 μl was added to each well. After 2 hours the medium was removed and replaced by 125 μL of 4/1 DMSO/glycine buffer (0.1M glycine, 0.1M NaCl, pH 10.5) before absorbance was determined at 538 nm.

[5] = system: Ba/F3 cells containing Ros1 wild-type protein + IL-3; assay: Ba/F3-Ros1 cell proliferation counter-screen, wild-type protein in the presence of 10 ng/ml murine IL-3; type: cell-based; conditions: Mus musculus, BaF3, 24 h, read-out: BaF3-ROS1 + IL3 pIC50 (converted)
Summary of the method: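 Read-out is resazurin-based Alamar Blue fluorescence (RFU, ex 540 nm, em 590 nm), measured 4 h after dye addition. Before that, wild-type Ros1 Ba/F3 cells had been cultured 24 h with compound in the presence of 10 ng/ml murine IL-3.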

[6] = counter-screen, wild-type, 10 ng/ml murine IL-3

SMILES | IC50 [1] | melting point | BaF3-ROS1-IL3 pIC50 [2] | Ba/F3 Ros1 L2026M (-IL-3) pIC50 [3] | EC50 ([4]; HCC78 cells, 4 days, MTT) | CC50 [5, 6] | HCC-78 PROL pEC50 ([4]; HCC78 cells, 4 days, MTT) | EC50 [4] | CC50 [5] | ROS1 pIC50 [1]
CC(C)c1ccc(C2CNc3cc(-c4c(-c5ccncc5)nn5c4C(=O)NCC5)ccc3O2)cc1 (racemic) [Compound 226] | 631 nM | 252 °C | 7.1 | 6.8 | 501 nM | > 10 µM |  |  |  | 
CC(C)c1ccc(COc2ccc(-c3c(-c4ccncc4)nn4c3C(=O)N(C(C)CO)CC4)cc2)cc1 (single isomer, unassigned) [Compound 38] | 12.6 nM | 144 °C | 7.9 | 7.5 |  |  | 7.3 |  |  | 
CC(C)c1ccc(COc2ccc(-c3c(-c4ccncc4)nn4c3C(=O)NCC4)cc2)cc1CCO [Compound 11] | 10 nM | 195 °C | 7.7 | 7.8 |  |  |  | 31.6 nM | > 10 µM | 
CC(C)c1ccc(COc2ccc(-c3c(-c4ccncc4)nn4c3C(=O)NCC4)c(F)c2F)cc1 [Compound 16] | 100 nM | 214 °C | 7.4 | 7.1 |  |  |  | 398 nM | > 10 µM | 
CC(C)c1ccc(COc2ccc(-c3c(-c4ccncc4)nn4c3C(=O)N(CCO)CC4)c(F)c2F)cc1 [Compound 20] | 100 nM | 138 °C | 6.9 | 7.0 |  |  |  | 1580 nM | > 10 µM | 
CC(C)c1ccc(COc2ccc(-c3c(-c4ccncc4)nn4c3C(=O)N(CC(O)CO)CC4)c(F)c2)cc1 (stereo not shown) [Compound 22] |  | 188 °C | 7.8 | 7.4 |  |  | 7.7 |  |  | 7.9
CC(C)c1ccc(COc2ccc(-c3c(-c4ccncc4)nn4c3C(=O)N(CC(O)CO)CC4)c(F)c2)cc1 (stereo not shown) [Compound 23] | 12.6 nM | 192 °C | 7.7 | 7.2 |  | > 10 µM | 7.2 |  |  | 
CC(C)c1ccc(COc2ccc(-c3c(-c4ccncc4)nn4c3C(=O)NCC4)c(Cl)c2)cc1 [Compound 24] | 7.94 nM | 267 °C | 7.8 | 8.2 |  |  |  | 1.58 nM | > 10 µM | 
CC(C)c1ccc(COc2ccc(-c3c(-c4ccncc4)nn4c3C(=O)NCC4)cc2Cl)cc1 [Compound 25] | 126 nM | 251 °C | 6.8 | 6.5 |  |  |  | 501 nM | > 10 µM | 
CC(C)c1ccc(COc2ccc(-c3c(-c4ccncc4)nn4c3C(=O)NCC4)c(C#N)c2)cc1 [Compound 27] | 15.8 nM | 268 °C | 7.7 | 7.1 |  |  |  | 20 nM | > 10 µM | 
Cc1cc(-c2c(-c3ccncc3)nn3c2C(=O)NCC3)cc(C)c1OCc1ccc(C(C)C)cc1 [Compound 29] | > 10000 nM | 260 °C | <5 | <5 |  |  |  | > 10000 nM | > 10 µM | 
Cc1cc(-c2c(-c3ccncc3)nn3c2C(=O)N(CCO)CC3)cc(C)c1OCc1ccc(C(C)C)cc1 [Compound 30] | > 10000 nM | 170 °C | <5 | <5 |  |  |  | > 10000 nM | > 10 µM | 
COc1cc(-c2c(-c3ccncc3)nn3c2C(=O)NCC3)cc(OC)c1OCc1ccc(C(C)C)cc1 [Compound 35] | 5010 nM | 192 °C | 5.7 | 5.8 |  |  |  | > 10000 nM | > 10 µM | 
COc1cc(-c2c(-c3ccncc3)nn3c2C(=O)N(CCO)CC3)cc(OC)c1OCc1ccc(C(C)C)cc1 [Compound 36] | 5010 nM | 176 °C | 5.8 | 5.7 |  |  |  | > 10000 nM | > 10 µM | 
CC(C)c1ccc(COc2ccc(-c3c(-c4ccncc4)nn4c3C(=O)N(CC(O)CO)CC4)cc2)cc1 (stereo not shown) [Compound 41] | 31.6 nM | 191 °C | 7.4 | 6.6 |  |  | 7.1 |  |  | 
CC(C)c1ccc(COc2ccc(-c3c(-c4ccncc4)nn4c3C(=O)N(CC3COC(C)(C)O3)CC4)cc2)cc1 (stereo not shown) [Compound 42] | 398 nM | 114 °C | 6.7 | 6.3 | 1260 nM | > 10 µM |  |  |  | 
CC(C)c1cc(F)c(COc2ccc(-c3c(-c4ccncc4)nn4c3C(=O)N(CC(O)CO)CC4)cc2)c(F)c1 (stereo not shown) [Compound 95] | 158 nM | 227 °C | 6.8 |  |  | > 10 µM | 6.4 |  |  | 
CC(C)c1cc(F)c(COc2ccc(-c3c(-c4ccncc4)nn4c3C(=O)N(CC(O)CO)CC4)cc2)c(F)c1 (stereo not shown) [Compound 96] |  | 228 °C | 6.9 | 6.6 |  |  | 5.9 |  |  | 6.8
CC(C)c1cc(F)c(COc2ccc(-c3c(-c4ccncc4)nn4c3C(=O)N(CC(O)CO)CC4)cc2)cc1F (stereo not shown) [Compound 99] | 501 nM | 183 °C | 6.6 | 6.0 |  |  | 5.7 |  |  | 
CC(C)(CN)c1ccc(COc2ccc(-c3c(-c4ccncc4)nn4c3C(=O)NCC4)cc2)cc1 [Compound 121] |  | 233 °C | 6.3 | 5.9 | 1000 nM | > 10 µM |  |  |  | 
CC(O)CN1CCn2nc(-c3ccncc3)c(-c3ccc(OCc4ccc(C5CC5)cc4)cc3)c2C1=O (stereo not shown) [Compound 135] | 158 nM | 197 °C | 7.3 | 7.0 |  |  | 6.5 |  |  | 
CC(O)CN1CCn2nc(-c3ccncc3)c(-c3ccc(OCc4ccc(C(C)C)cc4)cc3)c2C1 (stereo not shown) [Compound 192] |  | 151 °C | 6.9 | 6.9 |  |  | 6.2 |  |  | 6.8
CNC(=O)C(Oc1ccc(-c2c(-c3ccncc3)nn3c2C(=O)NCC3)cc1)c1ccc(C(C)C)cc1 (stereo not shown) [Compound 217] | 398 nM |  | 6.3 | 6.0 | 3160 nM | > 10 µM |  |  |  | 
C[Si](C)(C)c1ccc(COc2ccc(-c3c(-c4ccncc4)nn4c3C(=O)NCC4)cc2)cc1 [Compound 232] | 2000 nM |  | 6.7 | 6.5 | 2510 nM | > 10 µM |  |  |  | 
CNCCc1cc(COc2ccc(-c3c(-c4ccncc4)nn4c3C(=O)NCC4)cc2)ccc1C(C)C [Compound 234] | 20 nM |  | 7.1 | 6.7 |  |  |  | 126 nM | > 10 µM | 
CNCCc1cc(COc2ccc(-c3c(-c4ccncc4)nn4c3C(=O)N(CCO)CC4)cc2)ccc1C(C)C [Compound 235] | 25.1 nM |  | 6.7 | 6.5 | 316 nM | > 10 µM |  |  |  | 
CNCCc1cc(COc2ccc(-c3c(-c4ccncc4)nn4c3C(=O)N(C)CC4)cc2)ccc1C(C)C [Compound 236] | 15.8 nM |  | 7.6 | 7.4 | 126 nM | 3.98 µM |  |  |  | 
